A short description of the assay: Biotin-4-fluorescein (B4F) competition assay, binding affinity of chimeric proteins. The settings on record: room temperature.

As to “commercial streptavidin: streptavidin (MP Biomedicals) [reference compound]”, the “binding behavior to biotin-4-fluorescein (fluorescence intensity, binding curve fits)” value is “equivalent binding behavior”.

These data come from patent publication US12594346B2, “Crosslinked hydrogel for immune checkpoint blockade delivery” (GEORGIA TECH RESEARCH CORPORATION, priority 2020, dated 2026).
